Data reported in patent US10179777B2, “3-(1H-benzimidazol-2-yl)-1H-pyridin-2-one derivatives” (MERCK PATENT GMBH, priority 2015, dated 2019).
Structures can show the parent of a compound that is named as a salt.

Legend:
[1] = biological target: T1, ALK1 (GST-modified kinase domain ACVRL1 (139-503)) (Homo sapiens, UniProt P37023); experiment: ALK1 kinase inhibition assay (33P-ATP filter binding, Reaction Biology); type: biochemical; settings: casein substrate, 100 μM ATP (Km ATP), 120 min ambient temperature
T1 construct: N-terminally GST-modified kinase domain ACVRL1 (139-503); GST (N)
T1 sequence (P37023 139-503): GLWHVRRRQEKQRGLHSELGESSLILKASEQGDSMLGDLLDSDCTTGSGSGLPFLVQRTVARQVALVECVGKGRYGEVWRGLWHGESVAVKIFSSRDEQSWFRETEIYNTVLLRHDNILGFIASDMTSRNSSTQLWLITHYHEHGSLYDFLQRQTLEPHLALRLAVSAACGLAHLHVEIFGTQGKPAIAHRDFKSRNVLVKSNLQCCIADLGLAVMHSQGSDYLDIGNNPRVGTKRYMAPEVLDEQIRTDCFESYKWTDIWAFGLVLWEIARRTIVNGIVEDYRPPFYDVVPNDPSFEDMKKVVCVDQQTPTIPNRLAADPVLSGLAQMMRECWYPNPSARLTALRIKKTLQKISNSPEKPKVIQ
Method: (§1) The protein sequences of the kinases targeted and accompanying information are described in publically available data base http://www.uniprot.org/uniprot/for ALK1 www.uniprot.org/uniprot/P37023, for ALK2 www.uniprot.org/uniprot/Q04771 and for ALK5 www.uniprot.org/uniprot/P36897. IC50 determination of the novel inhibitors described was performed at Reaction Biology Corp., Malvern, Pa., USA, with assay conditions open to public at www.reactionbiology.com/webapps/site/KinaseDetail.aspx?page=Kinases&id=1, and www.reactionbiology.com/webapps/site/Kinase Assay Protocol.aspx. In addition, they were specified previously in Anastassiadis et al. Nat. Biotechnol. 29(11): 1039-1045. doi:10.1038/nbt.2017.
A1) ALK1 Kinase Inhibition Assay
(§2) was performed with N-terminally GST-modified kinase domain ACVRL1 (139-503) and 20 mg/ml Casein as substrate in reaction buffer of 20 mM HEPES pH 7.5, 10 mM MgCl2, 1 mM EGTA, 0.02% Brij, 0.02 mg/ml BSA, 0.1 mM Na3VO4, 2 mM DTT, 1% DMSO. […] Reactions were carried out at ambient temperature for 120 min, followed by spotting of the reactions onto P81 ion exchange filter paper (Whatman Inc., Picataway, N.J., USA). Unbound phosphate was removed by extensive washing of filters in 0.75% phosphoric acid. After subtraction of background derived from control reactions without enzyme activity, kinase activity data was expressed as the percent remaining kinase activity in test samples compared to vehicle (DMSO) reactions. IC50 values and curve fits were obtained using Prism (GraphPad Software).

[2] = biological target: T2, ALK5 (TGFβR1; GST-modified TGFBR1 (200-503)) (Homo sapiens, UniProt P36897); experiment: ALK5 kinase inhibition assay (33P-ATP filter binding, Reaction Biology); type: biochemical; settings: casein substrate, 200 μM ATP
T2 construct: Using GST-Modified TGFBR1 (200-503); GST
T2 sequence (P36897 200-503): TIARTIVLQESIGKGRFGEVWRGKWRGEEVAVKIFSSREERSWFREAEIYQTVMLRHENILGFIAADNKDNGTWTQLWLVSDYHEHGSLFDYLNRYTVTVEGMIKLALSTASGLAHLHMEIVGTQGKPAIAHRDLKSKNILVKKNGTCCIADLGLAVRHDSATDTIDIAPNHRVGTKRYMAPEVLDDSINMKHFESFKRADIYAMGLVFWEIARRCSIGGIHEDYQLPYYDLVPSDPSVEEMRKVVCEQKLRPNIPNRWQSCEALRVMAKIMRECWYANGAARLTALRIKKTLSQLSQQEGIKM
Method: as §1
A3) ALK5 Kinase Inhibition Assay Was Performed Similar to Procedures A1 and A2 Using GST-Modified TGFBR1 (200-503) and 1 mg/ml Casein as Substrate at 200 μM ATP.

[3] = biological target: T3, ALK2 (GST-modified kinase domain ACVR1(145-509)) (Homo sapiens, UniProt Q04771); experiment: ALK2 kinase inhibition assay (33P-ATP filter binding, Reaction Biology); type: biochemical; settings: casein substrate, 20 μM ATP (Km ATP), 120 min ambient temperature
T3 construct: N-terminally GST-modified kinase domain ACVR1(145-509); GST (N)
T3 sequence (Q04771 145-509): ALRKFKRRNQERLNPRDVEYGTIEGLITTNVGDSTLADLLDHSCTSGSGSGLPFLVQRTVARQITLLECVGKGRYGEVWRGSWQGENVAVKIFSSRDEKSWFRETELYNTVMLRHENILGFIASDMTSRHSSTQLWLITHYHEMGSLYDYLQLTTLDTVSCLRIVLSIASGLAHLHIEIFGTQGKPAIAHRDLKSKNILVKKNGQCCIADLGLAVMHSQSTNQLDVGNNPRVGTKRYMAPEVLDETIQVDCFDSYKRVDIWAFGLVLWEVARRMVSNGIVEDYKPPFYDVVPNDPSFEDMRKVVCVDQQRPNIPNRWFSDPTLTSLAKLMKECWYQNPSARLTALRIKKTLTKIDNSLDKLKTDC
Method: as §1
A2) ALK2 Kinase Inhibition Assay
as §2, with “performed similar to procedure A1” for “performed”, “domain ACVR1(145-509)” for “domain ACVRL1 (139-503)”, “and 1” for “and 20”

[4] = system: ALK1-mediated SMAD1/5 phosphorylation in HUVEC cells; experiment: Cell-based immunofluorescence assay for ALK1-mediated SMAD1/5 phosphorylation in HUVEC cells; settings: Homo sapiens, 1.5 ng/ml BMP-9 with compound for 2 h, % nuclei with pSMAD1/5 signal, read-out: Smad 1/5 IC50
From the text: In vitro cell-based Immunofluorescence-Assay for identification of inhibitors of ALK1-mediated SMAD1/5 phosphorylation in HUVEC cells:
ALK1 is a type I cell-surface receptor for the TGF-β superfamily of ligands. In adults ALK1 is mainly expressed on activated endothelial cells, e.g. during wound healing or in tumor angiogenesis. BMP9 and BMP10 are high affinity ligands for ALK1.
BMP9 and BMP10 binding leads to the phosphorylation of so-called Smad1 at Ser463 and Ser465 in the carboxy-terminal motif SSXS, as well as Smad5 and Smad8 at their corresponding sites. These phosphorylated Smads dimerize with the coactivating Smad4 and translocate to the nucleus, where they stimulate transcription of target genes.
Primary endothelial cells (HUVEC: Human Umbilical Vein Endothelial Cells; supplier Promocell) are cultivated in the culture medium obtained from Promocell (with supplements corresponding to 5% FCS) for maximum 5 passages, seeded into black 384-well culture plates with clear bottom (3000 cells/well/30 μl), and incubated for 16-24 hours at 37° C., 5% CO2 and 90% rH.
The following day cells were serum-starved for 2-3 h in order to stop TGF-ß-mediated signalling derived from ligands present in FBS. 1.5 ng/ml BMP-9 was than added in parallel with test compounds for 2 h at 37° C., 5% CO2 in order to identify compounds which block functional activity of ALK1 leading to phosphorylation and nuclear translocation of SMAD1/5/8.
After fixation (15 min 4% Formaldehyd in PBS) and permeabilization (10 min 0.2% Triton X-100 in PBS) an indirect immunocytochemical staining is performed with a specific Phospho-Smad1/5 (Ser463/465) antibody (Cell Signaling #9516) and Alexa488-labelled secondary anti-rabbit-IgG-antibody. DNA staining with Propidium Iodide allowed parallel cell counting. Image acquisition and analysis was performed on an MDS ImageXpress Ultra confocal High Content Reader using the image analysis software MetaXpress. Final read-out were % nuclei with a pSMAD1/5 signal above a defined background.
The final DMSO concentration in the assay was 0.5%. DMSO-treated HUVEC cells served as neutral control (=0%) and cells treated with 10 μM of a reference inhibitor described in a patent served as inhibitor control (=−100%). Raw data were normalised to the neutral and inhibitory references. The assay was performed as dose response (10 compound dilutions, 1 nM-30 μM).

Compound | IC50 [1] [nM] | IC50 [2] [nM] | IC50 [3] [nM] | IC50 [4] [nM]
O=c1[nH]cc(-c2ccc(F)c(CO)c2)cc1-c1nc2cc(N3CCCNCC3)ccc2[nH]1 [Compound A24, 3-(5-[1,4]Diazepan-1-yl-1H-benzimidazol-2-yl)-5-(4-fluoro-3-hydroxymethyl-phenyl)-1H-pyridin-2-one] | 33 | 6500 | 41 | –
O=c1[nH]cc(-c2ccnc3[nH]ccc23)cc1-c1nc2cc(Oc3ccncc3)ccc2[nH]1 [Compound A40, 3-[5-(Pyridin-4-yloxy)-1H-benzimidazol-2-yl]-5-(1H-pyrrolo[2,3-b]pyridin-4-yl)-1H-pyridin-2-one] | 73 | 8100 | 56 | 5200
O=c1[nH]cc(-c2ccnc3[nH]ccc23)cc1-c1nc2cc(N3CCC(O)CC3)ccc2[nH]1 [Compound A38, 3-[5-(4-Hydroxy-piperidin-1-yl)-1H-benzimidazol-2-yl]-5-(1H-pyrrolo[2,3-b]-pyridin-4-yl)-1H-pyridin-2-one] | 3.7 | 320 | 19 | –
Cc1[nH]c2ncccc2c1-c1c[nH]c(=O)c(-c2nc3cc(N4CCN(C)CC4)ccc3[nH]2)c1 [Compound A52, 3-[5-(4-Methyl-piperazin-1-yl)-1H-benzimidazol-2-yl]-5-(2-methyl-1H-pyrrolo-[2,3-b]pyridin-3-yl)-1H-pyridin-2-one] | 29 | 480 | 17 | 2600
O=c1[nH]cc(-c2ccnc3[nH]ccc23)cc1-c1nc2cc(N3CCCNCC3)ccc2[nH]1 [Compound A47, 3-(5-[1,4]Diazepan-1-yl-1H-benzimidazol-2-yl)-5-(1H-pyrrolo[2,3-b]pyridin-4-yl)-1H-pyridin-2-one] | 1 | 200 | 38 | –
O=c1[nH]cc(-c2ccnc3[nH]ccc23)cc1-c1nc2cc(N3CCNCC3)ccc2[nH]1 [Compound A44, 3-(5-Piperazin-1-yl-1H-benzimidazol-2-yl)-5-(1H-pyrrolo[2,3-b]pyridin-4-yl)-1H-pyridin-2-one dihydrochloride] | 4 | 140 | 6 | 10000
O=c1[nH]cc(-c2ccc(F)c(CO)c2)cc1-c1nc2cc(N3CCNCC3)ccc2[nH]1 [Compound A20, 5-(4-Fluoro-3-hydroxymethyl-phenyl)-3-(5-piperazin-1-yl-1H-benzimidazol-2-yl)-1H-pyridin-2-one] | 24 | 4400 | 19 | 7800
Cc1cc2c(-c3c[nH]c(=O)c(-c4nc5cc(N6CCNCC6)ccc5[nH]4)c3)ccnc2[nH]1 [Compound A48a, 5-(2-Methyl-1H-pyrrolo[2,3-b]pyridin-4-yl)-3-(5-piperazin-1-yl-1H-benzimidazol-2-yl)-1H-pyridin-2-one] | 49 | 130 | 44 | 2700
CN1CCN(c2ccc3[nH]c(-c4cc(-c5ccc(F)c(CO)c5)c[nH]c4=O)nc3c2)CC1 [Compound A34, 5-(4-Fluoro-3-hydroxymethyl-phenyl)-3-[5-(4-methyl-piperazin-1-yl)-1H-benzimidazol-2-yl]-1H-pyridin-2-one] | 30 | 4800 | 20 | 2000
O=c1[nH]cc(-c2cc(F)c(CO)c(F)c2)cc1-c1nc2cc(N3CCNCC3)ccc2[nH]1 [Compound A21, 5-(3,5-Difluoro-4-hydroxymethyl-phenyl)-3-(5-piperazin-1-yl-1H-benzimidazol-2-yl)-1H-pyridin-2-one dihydrochloride] | 8.6 | 5100 | 23 | 6100
O=c1[nH]cc(-c2ccc(CO)cc2)cc1-c1nc2cc(N3CCNCC3)ccc2[nH]1 [Compound A16, 5-(4-Hydroxymethyl-phenyl)-3-(5-piperazin-1-yl-1H-benzimidazol-2-yl)-1H-pyridin-2-one] | 6 | 2400 | 8 | 590
CN1CCN(c2ccc3[nH]c(-c4cc(-c5cccc(CO)c5F)c[nH]c4=O)nc3c2)CC1 [Compound A37, 5-(2-Fluoro-3-hydroxymethyl-phenyl)-3-[5-(4-methyl-piperazin-1-yl)-1H-benzimidazol-2-yl]-1H-pyridin-2-one trifluoroacetate] | 4 | 2500 | 30 | –
